From patent US12404250B2, “PARP inhibitors for treating cancer and asthma” (Oregon Health & Science University, priority 2018, dated 2025)

Experiments:
Type in all cases: biochemical
PARP4 Brct-cat = biological target: T1, PARP4 Brct-cat (Homo sapiens, UniProt Q9UKK3); assay: In vitro IC50, PARP4 Brct-cat; settings: SEM from a minimum of three dose-response experiments
T1 construct: PARP4 Brct-cat
T1 sequence (Q9UKK3 1-573 limits assumed): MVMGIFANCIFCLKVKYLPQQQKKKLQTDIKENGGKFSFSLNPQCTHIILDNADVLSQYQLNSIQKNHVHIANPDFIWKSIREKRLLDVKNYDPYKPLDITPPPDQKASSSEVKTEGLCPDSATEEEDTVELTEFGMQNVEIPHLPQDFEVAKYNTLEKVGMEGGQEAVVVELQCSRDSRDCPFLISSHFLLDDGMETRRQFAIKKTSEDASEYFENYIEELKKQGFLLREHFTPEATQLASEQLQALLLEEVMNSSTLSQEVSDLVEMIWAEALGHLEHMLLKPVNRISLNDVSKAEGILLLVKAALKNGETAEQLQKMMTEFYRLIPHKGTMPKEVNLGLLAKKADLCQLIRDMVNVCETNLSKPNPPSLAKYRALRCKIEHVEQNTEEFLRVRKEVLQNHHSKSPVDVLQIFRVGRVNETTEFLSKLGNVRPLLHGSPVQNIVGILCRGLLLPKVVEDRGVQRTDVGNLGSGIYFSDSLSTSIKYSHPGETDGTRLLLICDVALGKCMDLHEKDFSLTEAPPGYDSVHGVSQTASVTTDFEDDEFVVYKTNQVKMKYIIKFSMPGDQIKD

PARP11 = biological target: T2, PARP11 (Homo sapiens, UniProt Q9NR21); assay: In vitro IC50, PARP11 (plate assay, MARylation of SRPK2 and NXF1); settings: SEM from a minimum of three dose-response experiments
T2 sequence (Q9NR21 1-338): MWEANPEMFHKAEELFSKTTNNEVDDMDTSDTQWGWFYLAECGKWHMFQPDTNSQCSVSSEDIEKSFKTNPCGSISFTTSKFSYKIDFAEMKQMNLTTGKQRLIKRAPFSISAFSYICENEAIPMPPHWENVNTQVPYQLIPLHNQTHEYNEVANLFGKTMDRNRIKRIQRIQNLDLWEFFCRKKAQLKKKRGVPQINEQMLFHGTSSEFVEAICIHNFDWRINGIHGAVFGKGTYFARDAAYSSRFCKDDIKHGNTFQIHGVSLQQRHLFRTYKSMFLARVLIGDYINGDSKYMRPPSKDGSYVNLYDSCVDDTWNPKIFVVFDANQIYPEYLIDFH
Text: Curves generated using Prism 7 (Graph Pad); error bars indicate ±SEM from at least two replicates.

PARP6 = biological target: T3, PARP6 (Homo sapiens, UniProt Q2NL67); assay: In vitro IC50, immunoprecipitated GFP-PARP6 auto-MARylation
T3 construct: expressed in transfected cells; host or cells: HEK 293T
T3 sequence (Q2NL67 whole entry): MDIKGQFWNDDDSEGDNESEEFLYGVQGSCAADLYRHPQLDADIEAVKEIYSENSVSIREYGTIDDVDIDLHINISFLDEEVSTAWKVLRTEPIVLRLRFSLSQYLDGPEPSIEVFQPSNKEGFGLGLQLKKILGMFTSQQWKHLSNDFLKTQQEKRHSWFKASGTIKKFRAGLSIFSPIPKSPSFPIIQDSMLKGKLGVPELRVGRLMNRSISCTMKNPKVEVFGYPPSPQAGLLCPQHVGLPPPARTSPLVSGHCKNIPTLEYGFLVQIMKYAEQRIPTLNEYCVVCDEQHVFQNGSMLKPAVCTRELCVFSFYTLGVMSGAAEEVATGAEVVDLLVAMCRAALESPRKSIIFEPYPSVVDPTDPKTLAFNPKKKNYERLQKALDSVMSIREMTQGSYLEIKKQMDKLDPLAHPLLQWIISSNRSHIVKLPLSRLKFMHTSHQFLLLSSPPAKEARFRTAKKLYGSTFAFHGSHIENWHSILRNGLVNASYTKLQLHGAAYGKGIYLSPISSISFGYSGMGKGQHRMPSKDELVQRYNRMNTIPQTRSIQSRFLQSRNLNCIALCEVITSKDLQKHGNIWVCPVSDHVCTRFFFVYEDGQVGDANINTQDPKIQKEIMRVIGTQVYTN
Protocol: (§1) Auto-MARylation was analyzed by Western blot with an ADP-ribose (ADPr) binding reagent (uncropped blots shown below).

PARP15 cat = biological target: T4, PARP15 cat (Homo sapiens, UniProt Q460N3); assay: In vitro IC50, PARP15 cat; settings: SEM from a minimum of three dose-response experiments
T4 construct: cat-wwe; cat
T4 sequence (Q460N3 482-678 limits assumed): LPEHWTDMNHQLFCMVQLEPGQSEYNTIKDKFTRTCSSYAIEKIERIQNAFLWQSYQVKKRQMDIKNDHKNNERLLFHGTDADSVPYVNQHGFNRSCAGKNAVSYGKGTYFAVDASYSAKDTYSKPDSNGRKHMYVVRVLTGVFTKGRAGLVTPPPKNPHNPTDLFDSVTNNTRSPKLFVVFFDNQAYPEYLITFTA

PARP14 cat-wwe = biological target: T5, PARP14 cat-wwe (Homo sapiens, UniProt Q460N5); assay: In vitro IC50, PARP14 cat-wwe; settings: SEM from a minimum of three dose-response experiments
T5 construct: PARP14 cat-wwe; no borders given for the assay protein
T5 sequence (Q460N5 1523-1801 limits assumed): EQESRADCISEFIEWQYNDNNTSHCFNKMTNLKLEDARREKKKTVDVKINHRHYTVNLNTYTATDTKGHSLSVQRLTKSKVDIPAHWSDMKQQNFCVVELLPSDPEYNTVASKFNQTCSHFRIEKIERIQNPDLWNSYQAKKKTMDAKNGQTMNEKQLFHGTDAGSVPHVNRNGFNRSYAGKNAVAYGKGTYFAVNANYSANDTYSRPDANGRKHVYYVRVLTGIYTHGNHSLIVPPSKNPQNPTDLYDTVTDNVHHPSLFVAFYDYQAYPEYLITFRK

PARP5 bcat = biological target: T6, PARP5 bcat (Homo sapiens, UniProt Q9H2K2); assay: In vitro IC50, PARP5bcat; settings: SEM from a minimum of three dose-response experiments
T6 construct: bcat
T6 sequence (Q9H2K2 959-1164): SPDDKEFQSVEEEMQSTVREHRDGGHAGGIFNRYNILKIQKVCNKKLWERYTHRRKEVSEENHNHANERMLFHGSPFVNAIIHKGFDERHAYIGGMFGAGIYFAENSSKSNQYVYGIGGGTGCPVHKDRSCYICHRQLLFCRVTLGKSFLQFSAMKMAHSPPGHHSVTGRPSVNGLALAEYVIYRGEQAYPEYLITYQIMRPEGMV

PARP12 = biological target: T7, PARP12 (Homo sapiens, UniProt Q9H0J9); assay: In vitro IC50, immunoprecipitated GFP-PARP12 auto-MARylation
T7 construct: expressed in transfected cells; host or cells: HEK 293T
T7 sequence (Q9H0J9 1-701): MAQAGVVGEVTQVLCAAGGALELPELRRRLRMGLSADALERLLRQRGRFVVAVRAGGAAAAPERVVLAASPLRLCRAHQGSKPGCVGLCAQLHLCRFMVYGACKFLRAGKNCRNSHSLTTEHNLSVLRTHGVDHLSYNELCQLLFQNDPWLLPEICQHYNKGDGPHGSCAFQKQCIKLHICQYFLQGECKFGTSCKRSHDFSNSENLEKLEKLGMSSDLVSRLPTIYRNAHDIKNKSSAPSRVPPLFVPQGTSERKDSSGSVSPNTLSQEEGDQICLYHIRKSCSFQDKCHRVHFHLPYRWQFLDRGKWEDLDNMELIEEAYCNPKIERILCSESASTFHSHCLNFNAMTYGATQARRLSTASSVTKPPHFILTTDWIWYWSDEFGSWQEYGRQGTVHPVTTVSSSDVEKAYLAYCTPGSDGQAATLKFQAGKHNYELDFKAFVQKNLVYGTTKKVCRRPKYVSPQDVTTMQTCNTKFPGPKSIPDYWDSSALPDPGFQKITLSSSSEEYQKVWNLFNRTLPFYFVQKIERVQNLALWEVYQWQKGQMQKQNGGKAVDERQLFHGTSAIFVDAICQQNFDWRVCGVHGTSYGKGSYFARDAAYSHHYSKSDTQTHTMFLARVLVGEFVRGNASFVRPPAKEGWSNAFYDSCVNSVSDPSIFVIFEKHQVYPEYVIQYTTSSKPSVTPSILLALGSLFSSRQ
Protocol: as §1

PARP16 = biological target: T8, PARP16 (Homo sapiens, UniProt Q8N5Y8); assay: In vitro IC50, immunoprecipitated GFP-PARP16 auto-MARylation
T8 construct: expressed in transfected cells; host or cells: HEK 293T
T8 sequence (Q8N5Y8 1-322): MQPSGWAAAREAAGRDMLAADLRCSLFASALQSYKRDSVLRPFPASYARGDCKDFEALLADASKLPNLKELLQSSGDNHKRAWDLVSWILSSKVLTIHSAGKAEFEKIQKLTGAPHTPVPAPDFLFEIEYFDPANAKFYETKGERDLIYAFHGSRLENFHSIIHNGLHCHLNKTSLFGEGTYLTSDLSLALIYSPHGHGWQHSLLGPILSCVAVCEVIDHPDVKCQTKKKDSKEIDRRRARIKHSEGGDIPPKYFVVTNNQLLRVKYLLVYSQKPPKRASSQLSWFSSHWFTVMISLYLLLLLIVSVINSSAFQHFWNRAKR
Protocol: as §1

PARP 1 = PARP 1 (Homo sapiens, UniProt P09874); assay: In vitro IC50, PARP1; settings: SEM from a minimum of three dose-response experiments
Sequence of PARP 1 (P09874 whole entry): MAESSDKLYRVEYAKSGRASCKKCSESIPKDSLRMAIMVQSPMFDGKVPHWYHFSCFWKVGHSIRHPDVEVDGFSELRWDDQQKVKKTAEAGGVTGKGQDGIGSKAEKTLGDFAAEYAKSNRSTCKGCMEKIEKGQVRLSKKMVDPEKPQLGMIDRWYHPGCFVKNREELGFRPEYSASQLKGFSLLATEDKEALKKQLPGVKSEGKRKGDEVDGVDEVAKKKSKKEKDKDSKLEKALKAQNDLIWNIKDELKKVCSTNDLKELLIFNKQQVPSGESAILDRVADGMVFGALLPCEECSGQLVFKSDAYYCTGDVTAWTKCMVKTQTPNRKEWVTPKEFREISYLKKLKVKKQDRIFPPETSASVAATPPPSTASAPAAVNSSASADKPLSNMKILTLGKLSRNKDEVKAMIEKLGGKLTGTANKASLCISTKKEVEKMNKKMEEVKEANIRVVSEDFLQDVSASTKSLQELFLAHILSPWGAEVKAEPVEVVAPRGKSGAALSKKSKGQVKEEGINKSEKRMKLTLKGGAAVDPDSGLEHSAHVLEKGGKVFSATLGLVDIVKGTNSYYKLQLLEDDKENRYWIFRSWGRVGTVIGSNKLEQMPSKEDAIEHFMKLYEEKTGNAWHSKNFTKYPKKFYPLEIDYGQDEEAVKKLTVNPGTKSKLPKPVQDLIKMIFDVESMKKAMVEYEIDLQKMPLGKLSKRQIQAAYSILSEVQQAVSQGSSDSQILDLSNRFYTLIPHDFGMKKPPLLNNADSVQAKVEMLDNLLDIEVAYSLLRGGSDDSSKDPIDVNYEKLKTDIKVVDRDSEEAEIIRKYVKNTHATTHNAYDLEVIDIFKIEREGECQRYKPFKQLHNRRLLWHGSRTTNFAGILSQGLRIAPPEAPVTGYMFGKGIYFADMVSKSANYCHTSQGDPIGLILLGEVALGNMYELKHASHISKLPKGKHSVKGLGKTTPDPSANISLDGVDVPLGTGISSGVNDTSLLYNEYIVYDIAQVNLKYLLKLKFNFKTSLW

Row | SMILES | IC50 (PARP4 Brct-cat) | IC50 (PARP11) | IC50 (PARP6) | IC50 (PARP15 cat) | IC50 (PARP14 cat-wwe) | IC50 (PARP5 bcat) | IC50 (PARP12) | IC50 (PARP16) | IC50 (PARP 1)
1 | CC#Cc1ccc2c(=O)[nH]c(CSc3ccc(C(=O)O)cc3)nc2c1C [ITK6, 4-(((8-methyl-4-oxo-7-(prop-1-yn-1-yl)-3,4-dihydroquinazolin-2-yl)methyl)thio) benzoic acid] | > 30 µM | 99 ± 16 nM | > 3 µM | 496 ± 190 nM | 917 ± 86 nM | > 30 µM | – | – | –
2 | CC#Cc1ccc2c(=O)[nH]c(CSc3ncccn3)nc2c1C [ITK7, 8-methyl-7-(prop-1-yn-1-yl)-2-((pyrimidin-2-ylthio)methyl)quinazolin-4(3H)-one] | > 30 µM | 14 ± 3 nM | > 3 µM | > 30000 nM | 2860 ± 350 nM | > 30 µM | > 3 µM | > 3 µM | > 30 µM
